tested on: 186277-243-T-J2-PDC spheroids with HUVEC/MSC, viability; assay: Anticancer human tumor 186277-243-T-J2-PDC patient-derived colon adenocarcinoma cell line growth inhibition [CLK]; settings: curve of first compound; second compound 0.0316 µM
Method in brief: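 Patient-derived tumor cells grown as complex spheroids with HUVEC endothelial cells and mesenchymal stem cells, treated with drug combinations. Concentrations descend in half-log steps from near clinical Cmax, or from 10 microM if Cmax unknown.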
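Also: compound exposure lasted seven days before readout.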
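For viability, T/C in this document: 100% = DMSO vehicle control wells.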

| Compound | IC50 |
| --- | --- |
| Nc1ccn(C2OC(CO)C(O)C2(F)F)c(=O)n1 (configuration not stated) + CNC(=O)c1ccc(Nc2nc(OC3CCCC3)c3c(-c4ccc5nc(C)oc5c4)c[nH]c3n2)c(OC)c1 | < 31.6 nM |
| O=c1[nH]cc(F)c(=O)[nH]1 + CNC(=O)c1ccc(Nc2nc(OC3CCCC3)c3c(-c4ccc5nc(C)oc5c4)c[nH]c3n2)c(OC)c1 | > 10000 nM |
| Nc1ccccc1NC(=O)c1ccc(CNC(=O)OCc2cccnc2)cc1 + CNC(=O)c1ccc(Nc2nc(OC3CCCC3)c3c(-c4ccc5nc(C)oc5c4)c[nH]c3n2)c(OC)c1 | 3050 nM |
| Cn1ncnc1[C@H]1c2n[nH]c(=O)c3cc(F)cc(c23)N[C@@H]1c1ccc(F)cc1 + CN1CCN(c2cc(C(=O)Nc3cc4cc(-c5cnn(C)c5)ccc4cn3)ccn2)CC1 | > 100 nM |
| CC(Nc1ccc2c(c1)OCCn1cc(N3C(=O)OCC3C(F)F)nc1-2)C(N)=O (configuration not stated) + CNC(=O)c1ccc(Nc2nc(OC3CCCC3)c3c(-c4ccc5nc(C)oc5c4)c[nH]c3n2)c(OC)c1 | 1790 nM |

same assay, conditions: curve of first compound; second compound 0.1 µM

| Compound | IC50 |
| --- | --- |
| Nc1ccn(C2OC(CO)C(O)C2(F)F)c(=O)n1 (configuration not stated) + CNC(=O)c1ccc(Nc2nc(OC3CCCC3)c3c(-c4ccc5nc(C)oc5c4)c[nH]c3n2)c(OC)c1 | < 31.6 nM |
| O=c1[nH]cc(F)c(=O)[nH]1 + CNC(=O)c1ccc(Nc2nc(OC3CCCC3)c3c(-c4ccc5nc(C)oc5c4)c[nH]c3n2)c(OC)c1 | 5330 nM |
| Nc1ccccc1NC(=O)c1ccc(CNC(=O)OCc2cccnc2)cc1 + CNC(=O)c1ccc(Nc2nc(OC3CCCC3)c3c(-c4ccc5nc(C)oc5c4)c[nH]c3n2)c(OC)c1 | 2560 nM |
| Cn1ncnc1[C@H]1c2n[nH]c(=O)c3cc(F)cc(c23)N[C@@H]1c1ccc(F)cc1 + CN1CCN(c2cc(C(=O)Nc3cc4cc(-c5cnn(C)c5)ccc4cn3)ccn2)CC1 | > 100 nM |
| CC(Nc1ccc2c(c1)OCCn1cc(N3C(=O)OCC3C(F)F)nc1-2)C(N)=O (configuration not stated) + CNC(=O)c1ccc(Nc2nc(OC3CCCC3)c3c(-c4ccc5nc(C)oc5c4)c[nH]c3n2)c(OC)c1 | 41.7 nM |

same assay, conditions: curve of first compound; second compound 0.316 µM

| Compound | IC50 |
| --- | --- |
| Nc1ccn(C2OC(CO)C(O)C2(F)F)c(=O)n1 (configuration not stated) + CNC(=O)c1ccc(Nc2nc(OC3CCCC3)c3c(-c4ccc5nc(C)oc5c4)c[nH]c3n2)c(OC)c1 | < 31.6 nM |
| O=c1[nH]cc(F)c(=O)[nH]1 + CNC(=O)c1ccc(Nc2nc(OC3CCCC3)c3c(-c4ccc5nc(C)oc5c4)c[nH]c3n2)c(OC)c1 | < 31.6 nM |
| Nc1ccccc1NC(=O)c1ccc(CNC(=O)OCc2cccnc2)cc1 + CNC(=O)c1ccc(Nc2nc(OC3CCCC3)c3c(-c4ccc5nc(C)oc5c4)c[nH]c3n2)c(OC)c1 | 1510 nM |
| Cn1ncnc1[C@H]1c2n[nH]c(=O)c3cc(F)cc(c23)N[C@@H]1c1ccc(F)cc1 + CN1CCN(c2cc(C(=O)Nc3cc4cc(-c5cnn(C)c5)ccc4cn3)ccn2)CC1 | < 0.316 nM |
| CC(Nc1ccc2c(c1)OCCn1cc(N3C(=O)OCC3C(F)F)nc1-2)C(N)=O (configuration not stated) + CNC(=O)c1ccc(Nc2nc(OC3CCCC3)c3c(-c4ccc5nc(C)oc5c4)c[nH]c3n2)c(OC)c1 | < 31.6 nM |

same assay, conditions: curve of first compound; second compound 1 µM

| Compound | IC50 |
| --- | --- |
| Nc1ccn(C2OC(CO)C(O)C2(F)F)c(=O)n1 (configuration not stated) + CNC(=O)c1ccc(Nc2nc(OC3CCCC3)c3c(-c4ccc5nc(C)oc5c4)c[nH]c3n2)c(OC)c1 | < 31.6 nM |
| O=c1[nH]cc(F)c(=O)[nH]1 + CNC(=O)c1ccc(Nc2nc(OC3CCCC3)c3c(-c4ccc5nc(C)oc5c4)c[nH]c3n2)c(OC)c1 | < 31.6 nM |
| Nc1ccccc1NC(=O)c1ccc(CNC(=O)OCc2cccnc2)cc1 + CNC(=O)c1ccc(Nc2nc(OC3CCCC3)c3c(-c4ccc5nc(C)oc5c4)c[nH]c3n2)c(OC)c1 | 31.6 nM |
| Cn1ncnc1[C@H]1c2n[nH]c(=O)c3cc(F)cc(c23)N[C@@H]1c1ccc(F)cc1 + CN1CCN(c2cc(C(=O)Nc3cc4cc(-c5cnn(C)c5)ccc4cn3)ccn2)CC1 | < 0.316 nM |
| CC(Nc1ccc2c(c1)OCCn1cc(N3C(=O)OCC3C(F)F)nc1-2)C(N)=O (configuration not stated) + CNC(=O)c1ccc(Nc2nc(OC3CCCC3)c3c(-c4ccc5nc(C)oc5c4)c[nH]c3n2)c(OC)c1 | < 31.6 nM |

same assay, conditions: curve of first compound; second compound 3.16 µM

| Compound | IC50 |
| --- | --- |
| Nc1ccn(C2OC(CO)C(O)C2(F)F)c(=O)n1 (configuration not stated) + CNC(=O)c1ccc(Nc2nc(OC3CCCC3)c3c(-c4ccc5nc(C)oc5c4)c[nH]c3n2)c(OC)c1 | < 31.6 nM |
| O=c1[nH]cc(F)c(=O)[nH]1 + CNC(=O)c1ccc(Nc2nc(OC3CCCC3)c3c(-c4ccc5nc(C)oc5c4)c[nH]c3n2)c(OC)c1 | < 31.6 nM |
| Nc1ccccc1NC(=O)c1ccc(CNC(=O)OCc2cccnc2)cc1 + CNC(=O)c1ccc(Nc2nc(OC3CCCC3)c3c(-c4ccc5nc(C)oc5c4)c[nH]c3n2)c(OC)c1 | < 31.6 nM |
| Cn1ncnc1[C@H]1c2n[nH]c(=O)c3cc(F)cc(c23)N[C@@H]1c1ccc(F)cc1 + CN1CCN(c2cc(C(=O)Nc3cc4cc(-c5cnn(C)c5)ccc4cn3)ccn2)CC1 | < 0.316 nM |
| CC(Nc1ccc2c(c1)OCCn1cc(N3C(=O)OCC3C(F)F)nc1-2)C(N)=O (configuration not stated) + CNC(=O)c1ccc(Nc2nc(OC3CCCC3)c3c(-c4ccc5nc(C)oc5c4)c[nH]c3n2)c(OC)c1 | < 31.6 nM |

same assay, conditions: curve of first compound; second compound 10 µM

| Compound | IC50 |
| --- | --- |
| Nc1ccn(C2OC(CO)C(O)C2(F)F)c(=O)n1 (configuration not stated) + CNC(=O)c1ccc(Nc2nc(OC3CCCC3)c3c(-c4ccc5nc(C)oc5c4)c[nH]c3n2)c(OC)c1 | < 31.6 nM |
| O=c1[nH]cc(F)c(=O)[nH]1 + CNC(=O)c1ccc(Nc2nc(OC3CCCC3)c3c(-c4ccc5nc(C)oc5c4)c[nH]c3n2)c(OC)c1 | < 31.6 nM |
| Nc1ccccc1NC(=O)c1ccc(CNC(=O)OCc2cccnc2)cc1 + CNC(=O)c1ccc(Nc2nc(OC3CCCC3)c3c(-c4ccc5nc(C)oc5c4)c[nH]c3n2)c(OC)c1 | < 31.6 nM |
| Cn1ncnc1[C@H]1c2n[nH]c(=O)c3cc(F)cc(c23)N[C@@H]1c1ccc(F)cc1 + CN1CCN(c2cc(C(=O)Nc3cc4cc(-c5cnn(C)c5)ccc4cn3)ccn2)CC1 | < 0.316 nM |
| CC(Nc1ccc2c(c1)OCCn1cc(N3C(=O)OCC3C(F)F)nc1-2)C(N)=O (configuration not stated) + CNC(=O)c1ccc(Nc2nc(OC3CCCC3)c3c(-c4ccc5nc(C)oc5c4)c[nH]c3n2)c(OC)c1 | < 31.6 nM |

same assay, conditions: second compound 0.0316 µM; first compound 0.000316 µM; stronger effect = lower value

| Compound | viability, T/C |
| --- | --- |
| Cn1ncnc1[C@H]1c2n[nH]c(=O)c3cc(F)cc(c23)N[C@@H]1c1ccc(F)cc1 + CN1CCN(c2cc(C(=O)Nc3cc4cc(-c5cnn(C)c5)ccc4cn3)ccn2)CC1 | 86.9% |

same assay, conditions: second compound 0.0316 µM; first compound 0.001 µM; stronger effect = lower value

| Compound | viability, T/C |
| --- | --- |
| Cn1ncnc1[C@H]1c2n[nH]c(=O)c3cc(F)cc(c23)N[C@@H]1c1ccc(F)cc1 + CN1CCN(c2cc(C(=O)Nc3cc4cc(-c5cnn(C)c5)ccc4cn3)ccn2)CC1 | 104% |

same assay, conditions: second compound 0.0316 µM; first compound 0.00316 µM; stronger effect = lower value

| Compound | viability, T/C |
| --- | --- |
| Cn1ncnc1[C@H]1c2n[nH]c(=O)c3cc(F)cc(c23)N[C@@H]1c1ccc(F)cc1 + CN1CCN(c2cc(C(=O)Nc3cc4cc(-c5cnn(C)c5)ccc4cn3)ccn2)CC1 | 108% |

same assay, conditions: second compound 0.0316 µM; first compound 0.01 µM; stronger effect = lower value

| Compound | viability, T/C |
| --- | --- |
| Cn1ncnc1[C@H]1c2n[nH]c(=O)c3cc(F)cc(c23)N[C@@H]1c1ccc(F)cc1 + CN1CCN(c2cc(C(=O)Nc3cc4cc(-c5cnn(C)c5)ccc4cn3)ccn2)CC1 | 114% |

same assay, conditions: second compound 0.0316 µM; first compound 0.0316 µM; stronger effect = lower value

| Compound | viability, T/C |
| --- | --- |
| Nc1ccn(C2OC(CO)C(O)C2(F)F)c(=O)n1 (configuration not stated) + CNC(=O)c1ccc(Nc2nc(OC3CCCC3)c3c(-c4ccc5nc(C)oc5c4)c[nH]c3n2)c(OC)c1 | 13.3% |
| O=c1[nH]cc(F)c(=O)[nH]1 + CNC(=O)c1ccc(Nc2nc(OC3CCCC3)c3c(-c4ccc5nc(C)oc5c4)c[nH]c3n2)c(OC)c1 | 97.9% |
| Nc1ccccc1NC(=O)c1ccc(CNC(=O)OCc2cccnc2)cc1 + CNC(=O)c1ccc(Nc2nc(OC3CCCC3)c3c(-c4ccc5nc(C)oc5c4)c[nH]c3n2)c(OC)c1 | 106% |
| Cn1ncnc1[C@H]1c2n[nH]c(=O)c3cc(F)cc(c23)N[C@@H]1c1ccc(F)cc1 + CN1CCN(c2cc(C(=O)Nc3cc4cc(-c5cnn(C)c5)ccc4cn3)ccn2)CC1 | 95.1% |
| CC(Nc1ccc2c(c1)OCCn1cc(N3C(=O)OCC3C(F)F)nc1-2)C(N)=O (configuration not stated) + CNC(=O)c1ccc(Nc2nc(OC3CCCC3)c3c(-c4ccc5nc(C)oc5c4)c[nH]c3n2)c(OC)c1 | 86.1% |

same assay, conditions: second compound 0.0316 µM; first compound 0.1 µM; stronger effect = lower value

| Compound | viability, T/C |
| --- | --- |
| Nc1ccn(C2OC(CO)C(O)C2(F)F)c(=O)n1 (configuration not stated) + CNC(=O)c1ccc(Nc2nc(OC3CCCC3)c3c(-c4ccc5nc(C)oc5c4)c[nH]c3n2)c(OC)c1 | 10.8% |
| O=c1[nH]cc(F)c(=O)[nH]1 + CNC(=O)c1ccc(Nc2nc(OC3CCCC3)c3c(-c4ccc5nc(C)oc5c4)c[nH]c3n2)c(OC)c1 | 95.6% |
| Nc1ccccc1NC(=O)c1ccc(CNC(=O)OCc2cccnc2)cc1 + CNC(=O)c1ccc(Nc2nc(OC3CCCC3)c3c(-c4ccc5nc(C)oc5c4)c[nH]c3n2)c(OC)c1 | 107% |
| Cn1ncnc1[C@H]1c2n[nH]c(=O)c3cc(F)cc(c23)N[C@@H]1c1ccc(F)cc1 + CN1CCN(c2cc(C(=O)Nc3cc4cc(-c5cnn(C)c5)ccc4cn3)ccn2)CC1 | 113% |
| CC(Nc1ccc2c(c1)OCCn1cc(N3C(=O)OCC3C(F)F)nc1-2)C(N)=O (configuration not stated) + CNC(=O)c1ccc(Nc2nc(OC3CCCC3)c3c(-c4ccc5nc(C)oc5c4)c[nH]c3n2)c(OC)c1 | 93.9% |

same assay, conditions: second compound 0.0316 µM; first compound 0.316 µM; stronger effect = lower value

| Compound | viability, T/C |
| --- | --- |
| Nc1ccn(C2OC(CO)C(O)C2(F)F)c(=O)n1 (configuration not stated) + CNC(=O)c1ccc(Nc2nc(OC3CCCC3)c3c(-c4ccc5nc(C)oc5c4)c[nH]c3n2)c(OC)c1 | 12% |
| O=c1[nH]cc(F)c(=O)[nH]1 + CNC(=O)c1ccc(Nc2nc(OC3CCCC3)c3c(-c4ccc5nc(C)oc5c4)c[nH]c3n2)c(OC)c1 | 109% |
| Nc1ccccc1NC(=O)c1ccc(CNC(=O)OCc2cccnc2)cc1 + CNC(=O)c1ccc(Nc2nc(OC3CCCC3)c3c(-c4ccc5nc(C)oc5c4)c[nH]c3n2)c(OC)c1 | 93.3% |
| CC(Nc1ccc2c(c1)OCCn1cc(N3C(=O)OCC3C(F)F)nc1-2)C(N)=O (configuration not stated) + CNC(=O)c1ccc(Nc2nc(OC3CCCC3)c3c(-c4ccc5nc(C)oc5c4)c[nH]c3n2)c(OC)c1 | 63.2% |

same assay, conditions: second compound 0.0316 µM; first compound 1 µM; stronger effect = lower value

| Compound | viability, T/C |
| --- | --- |
| Nc1ccn(C2OC(CO)C(O)C2(F)F)c(=O)n1 (configuration not stated) + CNC(=O)c1ccc(Nc2nc(OC3CCCC3)c3c(-c4ccc5nc(C)oc5c4)c[nH]c3n2)c(OC)c1 | 14.9% |
| O=c1[nH]cc(F)c(=O)[nH]1 + CNC(=O)c1ccc(Nc2nc(OC3CCCC3)c3c(-c4ccc5nc(C)oc5c4)c[nH]c3n2)c(OC)c1 | 102% |
| Nc1ccccc1NC(=O)c1ccc(CNC(=O)OCc2cccnc2)cc1 + CNC(=O)c1ccc(Nc2nc(OC3CCCC3)c3c(-c4ccc5nc(C)oc5c4)c[nH]c3n2)c(OC)c1 | 92.9% |
| CC(Nc1ccc2c(c1)OCCn1cc(N3C(=O)OCC3C(F)F)nc1-2)C(N)=O (configuration not stated) + CNC(=O)c1ccc(Nc2nc(OC3CCCC3)c3c(-c4ccc5nc(C)oc5c4)c[nH]c3n2)c(OC)c1 | 57.6% |

Source: PubChem BioAssay AID2060625 (Molecular Pharmacology Branch, DTP, NCI, 2025)
